Laboratory results as given in publication PMC9412300, “In Vitro Evaluation and Mitigation of Niclosamide’s Liabilities as a COVID-19 Treatment” (Vaccines, 2022).
Where “and” joins values, the source holds several entries; their conditions need not be identical. Equal values may be shown once. Read-outs that look alike come from different tables or passages of the source.

Tests used:
[1] = Cell viability in VeroE6, shortened 24 h infection assay; conditions: African green monkey, VeroE6 cells infected with SARS-CoV-2, CC50 in shortened assay, VeroE6, 1 h preincubation, 24 h infection, top 10 μM
[2] = test system: SARS-CoV-2 B.1.1.7 variant; type: cell-based
SARS-CoV-2 WA1 variant = experiment: microbe, parasite or virus in culture; type: cell-based
[3] = test system: SARS-CoV-2 B.1.1.7 variant; experiment: microbe, parasite or virus in culture; type: cell-based
[4] = test system: SARS-CoV-2 B.1.1.7 variant; experiment: microbe, parasite or virus in culture; type: cell-based; conditions: for IC50: read-out: Vero-E6 (B.1.1.7) IC50
[5] = VeroE6, B.1.1.7, 156, 313, 625 nM niclosamide vs viral control
[6] = Severe acute respiratory syndrome coronavirus 2, NCI-H1437, 48 h
[7] = Severe acute respiratory syndrome coronavirus 2, Vero C1008, 48 h

| SMILES | IC50 (SARS-CoV-2 WA1 variant; read-out: H1437 (WA1) IC50) [µM] | IC50 [4] [µM] | H1437 (WA1) IC50 (SARS-CoV-2 WA1 variant) | also measured |
| --- | --- | --- | --- | --- |
| O=C(Nc1ccc([N+](=O)[O-])cc1Cl)c1cc(Cl)ccc1O [Niclosamide] |  |  |  | CC50 at 25 h [1]: > 10 µM; maximum size of syncytia (max area of viral objects) [2, 5]: decreased; number of individually infected cells within a well (viral objects per well) [2, 5]: reduced; N protein intensity of remaining viral objects ([2]; VeroE6, B.1.1.7, escalating concentrations 156, 313, 625 nM): increased; IC50 (SARS-CoV-2 WA1 variant; [6]): 16.8 µM; selectivity index (CC50/IC50), H1437 [3]: 1.67 and < 2; IC50 ([3]; Severe acute respiratory syndrome coronavirus 2, NCI-H1437): 0.261 µM; selectivity index (CC50/IC50), VeroE6 [4]: 1.86 and < 2; IC50 [4, 7]: 0.564 µM |
| COC(=O)c1ccc(NC(=O)c2cc(C(F)(F)F)ccc2O)c(C)c1 [Compound 23] | > 20 | > 20 |  |  |
| O=C(O)c1ccc(NC(=O)c2cc(Cl)ccc2O)c(Cl)c1 [Compound 8] |  | > 20 | Inverted | exacerbation of infection in H1437 (inverted concentration-response curves at high concentrations) (SARS-CoV-2 WA1 variant): exacerbate infection |
| CC(C)(C)c1cccc(C(=O)Nc2ccc(N)cc2Cl)c1O [Compound 32] | > 20 | > 20 |  |  |
| CC(C)(C)c1cc(C(=O)Nc2ccc(N)cc2Cl)c(O)c(C(C)(C)C)c1 [Compound 19] |  | > 20 | Inverted |  |
| Cc1cc(C(=O)O)ccc1NC(=O)c1cc(C(C)(C)C)ccc1O [Compound 16] |  | > 20 | Inverted |  |
| CC(C)(C)c1ccc(O)c(C(=O)Nc2ccc([N+](=O)[O-])cc2Cl)c1 [Compound 11] |  |  |  | IC50 (SARS-CoV-2 WA1 variant; [6]): 3.1 µM; IC50 [4, 7]: 0.423 µM |
| COC(=O)c1ccc(NC(=O)c2cc(C3CCCCC3)ccc2O)c(Cl)c1 [Compound 21] | > 20 | 9.91 |  |  |
| COc1ccc(O)c(C(=O)Nc2ccc([N+](=O)[O-])cc2Cl)c1 [Compound 4] | 10.9 | 1.77 |  |  |
| O=C(Nc1ccc([N+](=O)[O-])cc1Cl)c1ccccc1O [Compound 2] |  |  |  | IC50 (SARS-CoV-2 WA1 variant; [6]): 4.92 µM; IC50 [4, 7]: 0.296 µM |
| COc1ccc(NC(=O)c2cc(Cl)ccc2O)c(Cl)c1 [Compound 10] |  | 4.25 | Inverted | exacerbation of infection in H1437 (inverted concentration-response curves at high concentrations) (SARS-CoV-2 WA1 variant): exacerbate infection |
| COC(=O)c1ccc(NC(=O)c2cccc(C(C)(C)C)c2O)c(Cl)c1 [Compound 25] |  | > 20 | Inverted | exacerbation of infection in H1437 (inverted concentration-response curves at high concentrations) (SARS-CoV-2 WA1 variant): exacerbate infection |
| COC(=O)c1ccc(NC(=O)c2cc(C(C)(C)C)ccc2O)c(Cl)c1 [Compound 13] | > 20 | > 20 |  |  |
| CC(C)(C)c1ccc(O)c(C(=O)Nc2ccc(C(=O)O)cc2F)c1 [Compound 15] |  | > 20 | Inverted |  |
| O=C(Nc1ccc([N+](=O)[O-])cc1Cl)c1cccc(Cl)c1 [Compound 9] |  |  | complete loss of activity | IC50 (SARS-CoV-2 WA1 variant; [6]): > 20 µM; Vero-E6 (B.1.1.7) IC50 [4]: complete loss of activity; IC50 [4, 7]: > 20 µM |
| O=C(Nc1ccc(Br)cc1Cl)c1cc(Cl)ccc1O [Compound 34] | 3.49 | 0.76 |  |  |

| SMILES | IC50 (SARS-CoV-2 WA1 variant; read-out: H1437 (WA1) IC50) [µM] | IC50 [4] [µM] | H1437 (WA1) IC50 (SARS-CoV-2 WA1 variant) | also measured |
| --- | --- | --- | --- | --- |
| Cc1ccc(O)c(C(=O)Nc2ccc([N+](=O)[O-])cc2Cl)c1 [Compound 3] | 2.6 | 1.25 |  |  |
| CC(C)(C)c1cccc(C(=O)Nc2ccc(C(=O)O)cc2Cl)c1O [Compound 30] |  | > 20 | Inverted |  |
| Cc1ccc(NC(=O)c2cc(Cl)ccc2O)c(Cl)c1 [Compound 6] | > 20 | 0.76 |  |  |
| CC(C)(C)c1cc(C(=O)Nc2ccc(NS(C)(=O)=O)cc2Cl)c(O)c(C(C)(C)C)c1 [Compound 18] |  | > 20 | Inverted |  |
| COc1ccc(O)c(C(=O)Nc2ccc(C(=O)O)cc2C)c1 [Compound 28] |  | > 20 | Inverted |  |
| CC(C)(C)c1ccc(O)c(C(=O)Nc2ccc(C(=O)O)cc2Cl)c1 [Compound 14] |  | > 20 | Inverted |  |
| CC(C)(C)c1cccc(C(=O)Nc2ccc([N+](=O)[O-])cc2Cl)c1O [Compound 31] | > 20 | > 20 |  |  |
| N#Cc1ccc(NC(=O)c2cc(Cl)ccc2O)c(Cl)c1 [Compound 24] |  |  |  | IC50 (SARS-CoV-2 WA1 variant; [6]): 1.07 µM; IC50 [4, 7]: 0.348 µM |
| O=C(Nc1ccccc1Cl)c1cc(Cl)ccc1O [Compound 5] | > 20 | 0.89 |  |  |
| COC(=O)c1ccc(NC(=O)c2cc(Cl)ccc2O)c(Cl)c1 [Compound 7] |  |  | Inverted | exacerbation of infection in H1437 (inverted concentration-response curves at high concentrations) (SARS-CoV-2 WA1 variant): exacerbate infection; IC50 [4, 7]: 0.334 µM |
| COc1ccc(O)c(C(=O)Nc2ccc([N+](=O)[O-])cc2Cl)c1 [Compound 12] | 16.9 | 1.5 |  |  |
| CC(C)(C)c1cccc(C(=O)Nc2ccc(NS(C)(=O)=O)cc2Cl)c1O [Compound 33] |  | 2.88 | Inverted | exacerbation of infection in H1437 (inverted concentration-response curves at high concentrations) (SARS-CoV-2 WA1 variant): exacerbate infection |
| CC(C)(C)c1cc(C(=O)Nc2ccc(C(=O)O)cc2Cl)c(O)c(C(C)(C)C)c1 [Compound 26] | > 20 | > 20 |  |  |
| O=C(O)c1ccc(NC(=O)c2cc(C3CCCCC3)ccc2O)c(Cl)c1 [Compound 22] |  | 4.51 | Inverted | exacerbation of infection in H1437 (inverted concentration-response curves at high concentrations) (SARS-CoV-2 WA1 variant): exacerbate infection |
| Cc1cc(NC(=O)c2cc(C(C)(C)C)cc(C(C)(C)C)c2O)ccc1C(=O)O [Compound 27] |  | 16.5 |  |  |
| Cc1cc(NC(=O)c2cc(C(C)(C)C)cc(C(C)(C)C)c2O)ccc1C(=O)O [Compound 20] | > 20 | > 20 |  |  |
